In patent US9580430B2, “9H-pyrimido[4,5-B]indoles and related analogs as BET bromodomain inhibitors” (THE REGENTS OF THE UNIVERSITY OF MICHIGAN, priority 2014, dated 2017):

Legend:
[1] = tested on: VCaP prostate cancer cells; assay: Cell growth inhibition, VCaP prostate cancer cells (Cell-Titer GLO); format: cell-based; settings: 8 days; FIG. 22
Protocol: For prostate cancer cell lines, VCaP prostate cancer cells were grown in DMEM with Glutamax (Gibco) supplemented with 10% FBS (Invitrogen) in 5% CO2 cell culture incubator. All cell lines were tested and found to be free of mycoplasma contamination. Cells were seeded in 96-well plates at 2,000-10,000 cells per well (optimum density for growth) in a total volume of […] media containing 10% FBS. Serially diluted compounds in […] media were added to the cells 12 h later. […] The values were normalized and IC50 was calculated using GraphPad Prism software.
Cells were seeded in 96-well plates at 2000-10,000 cells/well (optimum density for growth) in a total volume of 100 μl media containing 10% FBS. Serially diluted compounds in 100 μl media were added to the cells 12 h later. Following 96 h. incubation, cell viability was assessed by Cell-Titer GLO (Promega). The values were normalized and IC50 was calculated using GraphPad Prism software. […] After 12 days cells were fixed with methanol, stained with crystal violet and photographed. For colorimetric assays, the stained wells were treated with 500 μl 10% acetic acid and the absorbance was measured at 560 nm using a spectrophotometer.

AR-positive cells = assay: Cell cycle analysis and apoptosis (cleaved PARP immunoblot); format: cell-based; settings: FIG. 2
Protocol: For cell cycle analysis, cells were washed 48 h post-treatment with PBS and fixed in 70% ethanol overnight. The cells were washed again with PBS, stained with propidium iodide and analyzed by flow cytometry.
(§1) For Western blot analysis, 200 ug total protein extract was boiled in sample buffer and 10-20 μg aliquots were separated by SDS-PAGE and transferred onto Polyvinylidene Difluoride membrane (GE Healthcare). The membrane was incubated for one hour in blocking buffer [Tris-buffered saline, 0.1% Tween (TBS-T), 5% nonfat dry milk] followed by incubation overnight at 4° C. with the primary antibody. Following a wash with TBS-T, the blot was incubated with horseradish peroxidase-conjugated secondary antibody and signals were visualized by enhanced chemiluminescence system as per manufacturer's protocol (GE Healthcare).

PSA and ERG = assay: QRT-PCR and immunoblot of AR-target genes in VCaP; format: cell-based; settings: VCaP cells; FIGS. 4 and 5
Protocol: Total RNA was isolated from cells using RNeasy Mini Kit (Qiagen) and cDNA was synthesized from 1,000 ng total RNA using SuperScript III First-Strand Synthesis SuperMix (Invitrogen). QPCRs were performed in duplicate or triplicate using Taqman assays (Applied Biosystems) or standard SYBR green reagents and protocols on a StepOnePlus Real-Time PCR system (Applied Biosystems). The target mRNA expression was quantified using ΔΔCt method and normalized to GAPDH expression. All primers were designed using Primer 3 (http://frodo.wi.mit.edu/primer3/) and synthesized by Integrated DNA Technologies (Coralville, Iowa).
as §1

VCaP or LNCaP cells = assay: Matrigel invasion assay, VCaP or LNCaP cells; format: cell-based; settings: 500 nM
Protocol: Medium containing 10% FBS in the lower chamber served as chemoattractant. […] After 48 h, the non-invading cells and EC matrix were gently removed with a cotton swab and invasive cells located on the lower side of the chamber were stained with crystal violet, air dried, photographed and counted.

AR = assay: ChIP-seq of AR in DHT-stimulated VCaP cells; format: cell-based; settings: DHT 10 nM plus JQ1 500 nM, MDV3100 10 μM or Bicalutamide 25 μM, FIG. 17
Protocol: (§2) The ChIP assays for BRD2, BRD3, BRD4, AR, RNA PolII, ERG and H3K27ac were performed using HighCell ChIP kit (Diagenode) according to manufacturer's protocol. […] Next, cells were cross-linked for 10 min. with 1% formaldehyde. […] Chromatin equivalent to 5×10^6 cells were used for ChIP using different antibodies. ChIP DNA was isolated (IPure Kit, Diagenode) from samples by incubation with the antibody at 4° C. overnight followed by wash and reversal of cross-linking. The ChIP-seq sample preparation for sequencing was performed according to the manufacturer's instructions (Illumina). […] A single A-base was added to fragment ends by Klenow fragment (3′ to 5′ exo minus; NEB) followed by ligation of Illumina adaptors (Quick ligase, NEB). The adaptor-modified DNA fragments were enriched by PCR using the Illumina Barcode primers and Phusion DNA polymerase (NEB). PCR products were size selected using 3% NuSieve agarose gels (Lonza) followed by gel extraction using QIAEX II reagents (QIAGEN). Libraries were quantified with the Bioanalyzer 2100 (Agilent) and sequenced on the Illumina HiSeq 2000 Sequencer (100 nucleotide read length).
(§3) For enrichment plots shown in FIGS. 17, 19 and 20, identified peaks for each sample are centered by peak summit and average coverage per million was counted within 1500 bp relative to the peak center.

BRD4 = assay: ChIP-seq of BRD4 in DHT-stimulated VCaP cells; format: cell-based; settings: JQ1 500 nM, FIG. 20
Protocol: as §2, §3

[2] = tested on: RWPE and PC3 cells overexpressing ERG; assay: Matrigel invasion assay, RWPE and PC3 cells overexpressing ERG; format: cell-based; settings: 500 nM
Protocol: Medium containing 10% FBS in the lower chamber served as chemoattractant. […] For colorimetric assays, the inserts were treated with 150 μl of 10% acetic acid and the absorbance measured at 560 nm using a spectrophotometer (GE Healthcare).

[3] = Prostate histology and hormone measurement in mice; format: in vivo
Protocol: Highly hormone responsive seminal vesicles attached to prostate were harvested from mice after four weeks of injection. Prostate were fixed in formalin solution and processed for sectioning. Standard H&E staining was achieved on the formalin fixed sections and were used to image the different lobes of the gland. To determine the testosterone levels, blood samples were collected by cardiac puncture from mice anesthetized with isoflurane. The serum was separated from the blood and stored at −80° C. until assayed. Serum testosterone levels were measured by the Ligand Assay at University of Michigan-ULAM Pathology Cores for Animal Research.

MYC signature [4] = assay: Gene expression array, GSEA of MYC signature, VCaP; format: cell-based; settings: VCaP after JQ1 treatment
Protocol: (§4) Cells treated with only vehicle or 10 nM DHT served as controls. […] Expression profiling was performed using the Agilent Whole Human Genome Oligo Microarray (SantaClara, Calif.) according to the manufacturer's protocol. All samples were run in technical duplicates or quadruplets against control. Over- and under-expressed gene sets were generated by filtering to include only 2-fold average over- or underexpression (Log ratio with p<0.001) in all hybridizations.

MYC signature [5] = assay: Gene expression array, GSEA of MYC signature, 22RV1; format: cell-based; settings: 22RV1 after JQ1 treatment
Protocol: as §4

MYC signature [6] = assay: Gene expression array, GSEA of MYC signature, DU145; format: cell-based; settings: DU145 after JQ1 treatment
Protocol: as §4

[7] = gene set SCHLOSSER_MYC_AND_SERUM_RESPONSE_SYNERGY
[8] = gene set SCHLOSSER_MYC_TARGETS_AND_SERUM_RESPONSE_UP
[9] = gene set SCHUHMACHER_MYC_TARGETS_UP

Cc1sc2c(c1C)C(c1ccc(Cl)cc1)=N[C@@H](CC(=O)OC(C)(C)C)c1nnc(C)n1-2 [JQ1]
VCaP cell viability in vitro [1]: suppression of cell growth at sub-micromolar concentrations
cell cycle arrest and apoptosis (AR-positive cells): induced G0-G1 arrest, apoptosis
PSA and ERG mRNA and protein level (PSA and ERG): dose-dependent decrease in PSA and ERG
cell invasion (VCaP or LNCaP cells): inhibited invasion
recruitment of AR to target loci (AR): block AR recruitment to a level almost equivalent to MDV3100
DHT induced BRD4 recruitment to the AR-BRD4 shared loci (BRD4): almost completely abrogated
ERG-mediated invasion [2]: attenuation of ERG-mediated invasion
physiologic androgen-regulated processes [3]: No effect on physiologic androgen-regulated processes
testes size [3]: reduced testes size
NES (MYC signature [4]; gene set MYC_UP.V1_UP): −2.265
NES (MYC signature [4]; [7]): −1.818
NES (MYC signature [4]; [8]): −1.824
NES (MYC signature [4]; [9]): −2.275
NES (MYC signature [5]; gene set MYC_UP.V1_UP): −1.712
NES (MYC signature [5]; [7]): −1.521
NES (MYC signature [5]; [8]): 1.353
NES (MYC signature [5]; [9]): −1.851
NES (MYC signature [6]; gene set MYC_UP.V1_UP): −0.952
NES (MYC signature [6]; [7]): −1.085
NES (MYC signature [6]; [8]): −0.734
NES (MYC signature [6]; [9]): −1.086
